Results: patent publication US20060020004A1, “Isoxazolidine compounds for treatment of bacterial infections” (Infinity Pharmaceuticals, Inc., priority 2004, published 2006)
Converted amounts (≈) assume the structure as drawn.

How the values were obtained:
[1] = test system: Staphylococcus aureus (Smith) ATCC 19636; assay: MIC determination, S. aureus; format: cell-based; details: S. aureus ATCC 19636, 17 h; for MIC: Staphylococcus aureus, ATCC19636
Method: (§1) Susceptibility testing for bacterial cultures is performed according to the National Council for Clinical Laboratory Standards (NCCLS) protocol M100-S12, “Performance Standards for Antimicrobial Susceptibility Testing.” The bacterial strains recommended by NCCLS were obtained from the American Type Culutre Collection (ATCC) (Table) and were maintained on Mueller Hinton (MHA) agar plates plus or minus 3% lysed horse blood (see Table). The bacteria were grown in Cation adjusted Mueller Hinton Broth (CaMHB) for liquid growth and susceptibility testing. S. cerevisiae (yeast) is grown in yeast peptone dextrose (YPD) media.
(§2) All bacterial cultures were grown at 37 degrees Celsius. Fresh colonies of S. aureus and MRSA were inoculated into liquid media and grown overnight and diluted the next day to grow to mid-log (Table 2). E. faecalis and S. pneumonia mid-log cultures were started directly from colony on plates. To attain mid-log growth, cultures were grown to an optical density (OD) at A590 of 0.2-0.8 (see Table 2) and then diluted to proper OD to obtain 5×10^5 cells/mL.
(§3) Diluted bacterial cultures are added to compound plates with compound diluted 2-fold from 100 μg/mL to 0.2 μg/mL final concentration in DMSO. Control antibiotics are also added: vancomycin, linezolid, and penicillin. In 384 well plates, 0.5 μL compound is added followed by addition of 50 μL of culture. DMSO alone is included as a control. Plates incubated at 37 degrees Celsius for 17-24 h.
(§4) Plates with cells mixed with compounds are incubated for 17 h for S. aureus and yeast, 24 h for MRSA, and all Enterococcus and Streptococcus strains. Yeast plates are incubated […].
(§5) Viability is determined by reading plates at A590 to determine optical density of treated and untreated cells and determining growth inhibition relative to controls.

[2] = test system: Methicillin resistant S. aureus ATCC 33591; assay: MIC determination, MRSA; format: cell-based, Staphylococcus aureus; details: MRSA ATCC 33591, 24 h; for MIC: Staphylococcus aureus
Method: as §1, §2, §3, §4, §5

[3] = test system: Penicillin-res. S. pneumonia ATCC 700671; assay: MIC determination, PRSP; format: cell-based, Streptococcus pneumonia; details: ATCC 700671, 24 h; for MIC: Streptococcus pneumoniae
Method: as §1, §2, §3, §4, §5

[4] = test system: Streptococcus pneumonia ATCC 49619; assay: MIC determination, S. pneumonia; format: cell-based; details: ATCC 49619, 24 h
Method: as §1, §2, §3, §4, §5

Structure (SMILES) | MIC S. aureus [1] | MIC MRSA [2] | MIC PRSP [3] | MIC [1] | MIC [2] | MIC [3] | MIC S. pneuomiae [4]
COc1ccc2[nH]cc(CCNC(=O)C3C(CO)C(C(C)O)ON3Cc3ccc(C#Cc4ccc(C)cc4)cc3)c2c1 (centres unmarked) | ** (the MIC is 5-90 μg/mL) | * (the MIC is >90 μg/mL) | ** (the MIC is 5-90 μg/mL) |  |  |  | 
Cc1ccc(C#Cc2ccc(CN3OC(C(C)O)C(CO)C3C(=O)NCCc3c[nH]c4cc(F)ccc34)cc2)cc1 (centres unmarked) | *** (the MIC is less than 5 μg/mL) | *** (the MIC is less than 5 μg/mL) | ** (the MIC is 5-90 μg/mL) |  |  |  | 
Cc1ccc(C#Cc2ccc(CN3O[C@@H]([C@@H](C)O)[C@@H](CO)[C@H]3CNCCc3c[nH]c4ccccc34)cc2)cc1 |  |  |  | 5 to 90 µg/mL (≈ 9.55 to 172 µM) | < 5 µg/mL |  | 
Cc1ccc(C#Cc2ccc(CN3O[C@@H]([C@@H](C)O)[C@@H](CN(C)C)[C@H]3C(=O)NCCc3c[nH]c4ccccc34)cc2)cc1 |  |  |  | < 5 µg/mL | < 5 µg/mL | 5 to 90 µg/mL (≈ 8.85 to 159 µM) | 
CC(O)C1ON(Cc2cccc(-c3ccc(C(C)(C)C)cc3)c2)C(C(=O)NCCc2c[nH]c3ccccc23)C1CO (centres unmarked) | *** (the MIC is less than 5 μg/mL) | *** (the MIC is less than 5 μg/mL) | ** (the MIC is 5-90 μg/mL) |  |  |  | 
CCCCCCCCCCCCN1O[C@@H]([C@H](C)O)[C@@H](CO)[C@H]1C(=O)NCCc1c[nH]c2ccccc12 |  |  |  | < 5 µg/mL | < 5 µg/mL |  | 
CC(O)C1ON(Cc2cccc(C=Cc3ccc(Cl)cc3)c2)C(C(=O)NCCc2c[nH]c3ccccc23)C1CO (centres unmarked) | *** (the MIC is less than 5 μg/mL) | *** (the MIC is less than 5 μg/mL) | ** (the MIC is 5-90 μg/mL) |  |  |  | 
CC(O)C1ON(Cc2ccc(-c3ccc(Cl)cc3)cc2)C(C(=O)NCCc2c[nH]c3ccccc23)C1CO (centres unmarked) | ** (the MIC is 5-90 μg/mL) | ** (the MIC is 5-90 μg/mL) | ** (the MIC is 5-90 μg/mL) |  |  |  | 
O=C(NCCc1c[nH]c2ccccc12)C1C(CO)C(CO)ON1Cc1ccc(C#Cc2ccccc2)cc1 (centres unmarked) | ** (the MIC is 5-90 μg/mL) | ** (the MIC is 5-90 μg/mL) | ** (the MIC is 5-90 μg/mL) |  |  |  | 
CC(O)C1ON(Cc2cccc(C=Cc3ccccc3)c2)C(C(=O)NCCc2c[nH]c3ccccc23)N1CO (centres unmarked) | ** (the MIC is 5-90 μg/mL) | ** (the MIC is 5-90 μg/mL) | ** (the MIC is 5-90 μg/mL) |  |  |  | 
Cc1ccc(C#Cc2ccc(CN3OC(CN)CC3C(=O)NCCc3c[nH]c4ccccc34)cc2)cc1.Cl (centres unmarked) | ** (the MIC is 5-90 μg/mL) | ** (the MIC is 5-90 μg/mL) | ** (the MIC is 5-90 μg/mL) |  |  |  | 
CC(O)C1ON(Cc2ccc(-c3cc4ccccc4o3)cc2)C(C(=O)NCCc2c[nH]c3ccccc23)C1CO (centres unmarked) | ** (the MIC is 5-90 μg/mL) | ** (the MIC is 5-90 μg/mL) | ** (the MIC is 5-90 μg/mL) |  |  |  | 
Cc1ccc(C#Cc2ccc(CN3OC[C@H](CN(C)C)[C@H]3C(=O)NCCc3c[nH]c4ccccc34)cc2)cc1 |  |  |  | 5 to 90 µg/mL (≈ 9.6 to 173 µM) | 5 to 90 µg/mL (≈ 9.6 to 173 µM) | 5 to 90 µg/mL (≈ 9.6 to 173 µM) | 
Cc1ccc(C#Cc2ccc(CN3O[C@@H]([C@@H](C)O)[C@@H](CN(C)C)[C@@H]3C(=O)NCCc3c[nH]c4ccccc34)cc2)cc1.Cl |  |  |  | 5 to 90 µg/mL | 5 to 90 µg/mL | 5 to 90 µg/mL | 
Cc1ccc(C#Cc2ccc(CN3OC(CO)CC3C(=O)NCCc3c[nH]c4ccccc34)cc2)cc1 (centres unmarked) |  |  |  | 5 to 90 µg/mL (≈ 10.1 to 182 µM) | 5 to 90 µg/mL (≈ 10.1 to 182 µM) | 5 to 90 µg/mL (≈ 10.1 to 182 µM) | 
CC(O)C1ON(Cc2ccc(-c3ccc(Oc4ccccc4)cc3)cc2)C(C(=O)NCCc2c[nH]c3ccccc23)C1CO (centres unmarked) | ** (the MIC is 5-90 μg/mL) | ** (the MIC is 5-90 μg/mL) | ** (the MIC is 5-90 μg/mL) |  |  |  | 
Cc1ccc(C#Cc2ccc(CN3OC(C(C)O)C(COC(=O)CN(C)C)C3C(=O)NCCc3c[nH]c4ccccc34)cc2)cc1 (centres unmarked) |  | ** (the MIC is 5-90 μg/mL) | ** (the MIC is 5-90 μg/mL) |  |  |  | 
CCCCCCCCN1O[C@@H]([C@H](C)O)[C@@H](CO)[C@H]1C(=O)NCCc1c[nH]c2ccccc12 |  |  |  | 5 to 90 µg/mL (≈ 11.2 to 202 µM) | 5 to 90 µg/mL (≈ 11.2 to 202 µM) |  | 
CC(O)C1ON(Cc2cccc(-c3ccc(Cl)cc3)c2)C(C(=O)NCCc2c[nH]c3ccccc23)C1CO (centres unmarked) | ** (the MIC is 5-90 μg/mL) | ** (the MIC is 5-90 μg/mL) | ** (the MIC is 5-90 μg/mL) |  |  |  | 

Structure (SMILES) | MIC S. aureus [1] | MIC MRSA [2] | MIC PRSP [3] | MIC [1] | MIC [2] | MIC [3] | MIC S. pneuomiae [4]
Cc1ccc(C#Cc2ccc(CN3OC(C(C)O)C(CO)C3CNCCc3c[nH]c4ccccc34)cc2)cc1 (centres unmarked) | ** (the MIC is 5-90 μg/mL) | ** (the MIC is 5-90 μg/mL) | * (the MIC is >90 μg/mL) |  |  |  | 
Cc1ccc(C#Cc2ccc(CC3O[C@H]([C@@H](C)O)[C@H](CO)[C@@H]3C(=O)NCCc3nc4ccccc4[nH]3)cc2)cc1 (some centres unmarked) |  |  |  | 5 to 90 µg/mL (≈ 9.3 to 167 µM) | 5 to 90 µg/mL (≈ 9.3 to 167 µM) | 5 to 90 µg/mL (≈ 9.3 to 167 µM) | 
CC(O)C1ON(CCCCCCc2ccccc2)C(C(=O)NCCc2c[nH]c3ccccc23)C1CO (centres unmarked) | ** (the MIC is 5-90 μg/mL) | ** (the MIC is 5-90 μg/mL) | ** (the MIC is 5-90 μg/mL) |  |  |  | 
CC(O)C1ON(CCCCCCCCc2ccccc2)C(C(=O)NCCc2c[nH]c3ccccc23)C1CO (centres unmarked) |  | ** (the MIC is 5-90 μg/mL) | ** (the MIC is 5-90 μg/mL) |  |  |  | 
CC(O)C1ON(Cc2ccc(-c3ccccc3)cc2)C(C(=O)NCCc2c[nH]c3ccccc23)C1CO (centres unmarked) | ** (the MIC is 5-90 μg/mL) | ** (the MIC is 5-90 μg/mL) | * (the MIC is >90 μg/mL) |  |  |  | 
CC(O)C1ON(Cc2ccc(Oc3ccccc3)cc2)C(C(=O)NCCc2c[nH]c3ccccc23)C1CO (centres unmarked) | ** (the MIC is 5-90 μg/mL) | ** (the MIC is 5-90 μg/mL) | ** (the MIC is 5-90 μg/mL) |  |  |  | 
Cc1ccc(C#Cc2ccc(CN3OC(CN)CC3C(=O)NCCc3c[nH]c4ccccc34)cc2)cc1 (centres unmarked) | ** (the MIC is 5-90 μg/mL) | ** (the MIC is 5-90 μg/mL) | ** (the MIC is 5-90 μg/mL) |  |  |  | 
Cc1ccc(C#Cc2ccc(CN3OC4CNCC4C3C(=O)NCCc3c[nH]c4ccccc34)cc2)cc1.Cl (centres unmarked) |  |  |  | 5 to 90 µg/mL | 5 to 90 µg/mL |  | 
CC(O)C1ON(Cc2ccc(C#Cc3cccc(O)c3)cc2)C(C(=O)NCCc2c[nH]c3ccccc23)C1CO (centres unmarked) | ** (the MIC is 5-90 μg/mL) | ** (the MIC is 5-90 μg/mL) | ** (the MIC is 5-90 μg/mL) |  |  |  | 
Cc1ccc(C#Cc2ccc(CN3OC(C(C)O)C(CO)C3C(=O)NCCc3cnc[nH]3)cc2)cc1 (centres unmarked) | * (the MIC is >90 μg/mL) | ** (the MIC is 5-90 μg/mL) |  |  |  |  | * (the MIC is >90 μg/mL)
CC(O)C1ON(Cc2ccc(C#Cc3ccc(C(=O)O)cc3)cc2)C(C(=O)NCCc2c[nH]c3ccccc23)C1CO (centres unmarked) | * (the MIC is >90 μg/mL) | * (the MIC is >90 μg/mL) | * (the MIC is >90 μg/mL) |  |  |  | 
CC(O)C1ON(Cc2ccc(-c3ccc(C(C)(C)C)cc3)cc2)C(C(=O)NCCc2c[nH]c3ccccc23)C1CO (centres unmarked) | ** (the MIC is 5-90 μg/mL) | * (the MIC is >90 μg/mL) | ** (the MIC is 5-90 μg/mL) |  |  |  | 
Cc1ccc(C#Cc2ccc(CN3O[C@H]([C@@H](C)O)[C@H](CO)[C@@H]3C(=O)NCCN3CCCC3)cc2)cc1 |  |  |  | > 90 µg/mL | > 90 µg/mL | > 90 µg/mL | 
CCCCCCN1O[C@@H]([C@H](C)O)[C@@H](CO)[C@H]1C(=O)NCCc1c[nH]c2ccccc12 | * (the MIC is >90 μg/mL) | * (the MIC is >90 μg/mL) | * (the MIC is >90 μg/mL) |  |  |  | 
Cc1ccc(C#Cc2ccc(CN3OC(C(C)O)C(CO)C3C(=O)NCCc3c[nH]c4ccccc34)cc2)cc1 (centres unmarked) [drawing 206] | *** (the MIC is less than 5 μg/mL) | *** (the MIC is less than 5 μg/mL) | ** (the MIC is 5-90 μg/mL) |  |  |  | 
Cc1ccc(C#Cc2ccc(CN3OCC(CO)C3C(=O)NCCc3c[nH]c4ccccc34)cc2)cc1 (centres unmarked) [drawing 212] |  | *** (the MIC is less than 5 μg/mL) | ** (the MIC is 5-90 μg/mL) |  |  |  | 
CC(O)C1ON(Cc2ccc(C=Cc3ccccc3)cc2)C(C(=O)NCCc2c[nH]c3ccccc23)C1CO (centres unmarked) [drawing 216] | *** (the MIC is less than 5 μg/mL) | *** (the MIC is less than 5 μg/mL) | ** (the MIC is 5-90 μg/mL) |  |  |  | 
Cc1ccc(C#Cc2ccc(CN3OCC(CO)C3C(=O)NCCc3c[nH]c4ccccc34)cc2)cc1 (centres unmarked) [drawing 221] | ** (the MIC is 5-90 μg/mL) | ** (the MIC is 5-90 μg/mL) | ** (the MIC is 5-90 μg/mL) |  |  |  | 
